Source: US20230303549A1, “SUBSTITUTED HETEROARYLOXYPYRIDINES, THE SALTS THEREOF AND THEIR USE AS HERBICIDAL AGENTS” (Bayer Aktiengesellschaft, priority 2020, published 2023)

Experiments:
Format in all cases: in vivo
[1] = test system: Digitaria sanguinalis (DIGSA); assay: Post-emergence herbicidal efficacy at 320 g/ha, greenhouse pot test; conditions: visual rating vs untreated control after about 3 weeks
Procedure, shortened: (§1)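 Greenhouse pots, sandy loam; treated at one-leaf stage (2–3 wk post-sowing). WP/EC in water + 0.5% additive, 600 L/ha onto green parts. Visual % rating at ~3 wk vs untreated (100% = dead, 0% = as control).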

Veronica persica (VERPE) [2] = assay: as above; conditions: 320 g/ha, visual rating vs untreated control after about 3 weeks
Procedure, shortened: as §1

Bassia scoparia (KCHSC) [3] = assay: as above; conditions: visual rating vs untreated control after about 3 weeks
Procedure, shortened: as §1

[4] = test system: Amaranthus retroflexus (AMARE); assay: as above; conditions: visual rating vs untreated control after about 3 weeks
Procedure, shortened: as §1

[5] = test system: Alopecurus myosuroides (ALOMY); assay: as above; conditions: visual rating vs untreated control after about 3 weeks
Procedure, shortened: as §1

Stellaria media (STEME) [6] = assay: as above; conditions: visual rating vs untreated control after about 3 weeks
Procedure, shortened: as §1

[7] = test system: Amaranthus retroflexus (AMARE); assay: Post-emergence herbicidal efficacy at 80 g/ha, greenhouse pot test; conditions: visual rating vs untreated control after about 3 weeks
Experimental: (§2) Seeds of monocotyledonous and dicotyledonous weeds and crop plants were placed in sandy loam in plastic or organic planting pots, covered with soil and cultivated in a greenhouse under controlled growth conditions. 2 to 3 weeks after sowing, the test plants were treated at the one-leaf stage. The compounds of the invention, formulated in the form of wettable powders (WP) or as emulsion concentrates (EC), were then sprayed onto the green parts of the plants as aqueous suspension or emulsion with addition of 0.5% additive at a water application rate of 600 l/ha (converted). After the test plants had been kept in the greenhouse under optimum growth conditions for about 3 weeks, the activity of the preparations was rated visually in comparison to untreated controls. For example, 100% activity=the plants have died, 0% activity=like control plants. Tables B1 to B6 below show the effects of selected compounds of the general formula (I) according to Table 1 on various harmful plants and an application rate corresponding to 80 g/ha, which were obtained by the experimental procedure mentioned above.

Viola tricolor (VIOTR) [8] = assay: as above; conditions: visual rating vs untreated control after about 3 weeks
Experimental: as §2

[9] = test system: Alopecurus myosuroides (ALOMY); assay: as above; conditions: visual rating vs untreated control after about 3 weeks
Experimental: as §2

[10] = test system: Polygonum convolvulus (POLCO); assay: Pre-emergence herbicide efficacy at 80 g/ha, greenhouse pot test; conditions: visual scoring vs untreated control after about 3 weeks
From the text: (§3) Seeds of monocotyledonous and dicotyledonous weed plants and crop plants were placed in plastic or organic planting pots and covered with soil. The compounds of the invention, formulated in the form of wettable powders (WP) or as emulsion concentrates (EC), were then applied to the surface of the covering soil as aqueous suspension or emulsion with addition of 0.5% additive at a water application rate of […] (converted). After the treatment, the pots were placed in a greenhouse and kept under good growth conditions for the test plants. After about 3 weeks, the effect of the preparations was scored visually in comparison with untreated controls as percentages. For example, 100% activity=the plants have died, 0% activity=like control plants. Tables D1 to D12 below show the effects of selected compounds of the general formula (I) according to Table 1 on various harmful plants and an application rate corresponding to 80 g/ha, which were obtained by the experimental procedure mentioned above.

[11] = test system: Matricaria inodora (MATIN); assay: as above; conditions: visual scoring vs untreated control after about 3 weeks
From the text: as §3

[12] = test system: Abutilon theophrasti (ABUTH); assay: as above; conditions: visual scoring vs untreated control after about 3 weeks
From the text: as §3

Veronica persica (VERPE) [13] = assay: as above; conditions: visual scoring vs untreated control after about 3 weeks
From the text: as §3

Setaria viridis (SETVI) [14] = assay: as above; conditions: visual scoring vs untreated control after about 3 weeks
From the text: as §3

[15] = test system: Amaranthus retroflexus (AMARE); assay: as above; conditions: visual scoring vs untreated control after about 3 weeks
From the text: as §3

Viola tricolor (VIOTR) [16] = assay: as above; conditions: visual scoring vs untreated control after about 3 weeks
From the text: as §3

[17] = test system: Alopecurus myosuroides (ALOMY); assay: as above; conditions: visual scoring vs untreated control after about 3 weeks
From the text: as §3

[18] = test system: Digitaria sanguinalis (DIGSA); assay: Pre-emergence herbicide efficacy at 320 g/ha, greenhouse pot test; conditions: visual scoring vs untreated control after about 3 weeks
Procedure, shortened: (§4)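 Sandy loam pots held seeds of a single weed species each. The test compound was sprayed pre-emergence in 600 L/ha water with 0.5% additive. Effect was rated visually in % against untreated controls after ~3 weeks.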

[19] = test system: Matricaria inodora (MATIN); assay: as above; conditions: visual scoring vs untreated control after about 3 weeks
Procedure, shortened: as §4

Poa annua (POAAN) [20] = assay: as above; conditions: visual scoring vs untreated control after about 3 weeks
Procedure, shortened: as §4

[21] = test system: Echinochloa crus-galli (ECHCG); assay: as above; conditions: visual scoring vs untreated control after about 3 weeks
Procedure, shortened: as §4

[22] = test system: Abutilon theophrasti (ABUTH); assay: as above; conditions: visual scoring vs untreated control after about 3 weeks
Procedure, shortened: as §4

Veronica persica (VERPE) [23] = assay: as above; conditions: visual scoring vs untreated control after about 3 weeks
Procedure, shortened: as §4

Setaria viridis (SETVI) [24] = assay: as above; conditions: visual scoring vs untreated control after about 3 weeks
Procedure, shortened: as §4

Bassia scoparia (KCHSC) [25] = assay: as above; conditions: 320 g/ha, visual scoring vs untreated control after about 3 weeks
Procedure, shortened: as §4

[26] = test system: Amaranthus retroflexus (AMARE); assay: as above; conditions: visual scoring vs untreated control after about 3 weeks
Procedure, shortened: as §4

[27] = test system: Alopecurus myosuroides (ALOMY); assay: as above; conditions: visual scoring vs untreated control after about 3 weeks
Procedure, shortened: as §4

Stellaria media (STEME) [28] = assay: as above; conditions: visual scoring vs untreated control after about 3 weeks
Procedure, shortened: as §4

Poa annua (POAAN) [29] = assay: Post-emergence herbicidal efficacy at 320 g/ha, greenhouse pot test; conditions: visual rating vs untreated control after about 3 weeks
Procedure, shortened: as §1

[30] = test system: Digitaria sanguinalis (DIGSA); assay: Pre-emergence herbicide efficacy at 80 g/ha, greenhouse pot test; conditions: visual scoring vs untreated control after about 3 weeks
From the text: as §3

Lolium rigidum (LOLRI) = assay: Pre-emergence herbicide efficacy at 320 g/ha, greenhouse pot test; conditions: visual scoring vs untreated control after about 3 weeks
Procedure, shortened: as §4

[31] = test system: Abutilon theophrasti (ABUTH); assay: Post-emergence herbicidal efficacy at 320 g/ha, greenhouse pot test; conditions: visual rating vs untreated control after about 3 weeks
Procedure, shortened: as §1

[32] = test system: Polygonum convolvulus (POLCO); assay: Post-emergence herbicidal efficacy at 80 g/ha, greenhouse pot test; conditions: visual rating vs untreated control after about 3 weeks
Experimental: as §2

Veronica persica (VERPE) [33] = assay: as above; conditions: visual rating vs untreated control after about 3 weeks
Experimental: as §2

Compound | Post-emergence efficacy against Digitaria sanguinalis (DIGSA) [1] [%] | Post-emergence efficacy against Veronica persica (VERPE) (Veronica persica (VERPE) [2]) [%] | Post-emergence efficacy against Amaranthus retroflexus (AMARE) [4] [%] | Post-emergence action against Stellaria media (STEME) (Stellaria media (STEME) [6]) [%] | Post-emergence efficacy against Amaranthus retroflexus (AMARE) [7] [%] | Post-emergence efficacy against Viola tricolor (VIOTR) (Viola tricolor (VIOTR) [8]) [%] | Post-emergence efficacy against Alopecurus myosuroides (ALOMY) [9] [%] | Pre-emergence efficacy against Polygonum convolvulus (POLCO) [10] [%] | Pre-emergence efficacy against Amaranthus retroflexus (AMARE) [15] [%] | Pre-emergence efficacy against Viola tricolor (VIOTR) (Viola tricolor (VIOTR) [16]) [%] | Pre-emergence efficacy against Digitaria sanguinalis (DIGSA) [18] [%] | Pre-emergence efficacy against Matricaria inodora (MATIN) [19] [%] | Pre-emergence efficacy against Poa annua (POAAN) (Poa annua (POAAN) [20]) [%] | Pre-emergence efficacy against Echinochloa crus-galli (ECHCG) [21] [%] | Pre-emergence efficacy against Abutilon theophrasti (ABUTH) [22] [%] | Pre-emergence efficacy against Veronica persica (VERPE) (Veronica persica (VERPE) [23]) [%] | Pre-emergence efficacy against Setaria viridis (SETVI) (Setaria viridis (SETVI) [24]) [%] | Pre-emergence efficacy against Bassia scoparia (KCHSC) (Bassia scoparia (KCHSC) [25]) [%] | Pre-emergence efficacy against Amaranthus retroflexus (AMARE) [26] [%] | Pre-emergence efficacy against Stellaria media (STEME) (Stellaria media (STEME) [28]) [%] | other results
Cc1cc(C)c(-c2cc(C(F)Cl)no2)c(Oc2ncc(Cl)cn2)n1 (centres unmarked) [Example I-5] | 90 | 100 | 100 | 90 | 100 | 80 | 80 | 90 | 100 | 90 | 100 | 100 | 100 | 90 | 100 | 90 | 100 | 100 | 100 | 100 | Post-emergence efficacy against Bassia scoparia (KCHSC) (Bassia scoparia (KCHSC) [3]): 90%; Post-emergence efficacy against Alopecurus myosuroides (ALOMY) [5]: 100%; Pre-emergence efficacy against Matricaria inodora (MATIN) [11]: 90%; Pre-emergence efficacy against Abutilon theophrasti (ABUTH) [12]: 90%; Pre-emergence efficacy against Veronica persica (VERPE) (Veronica persica (VERPE) [13]): 90%; Pre-emergence efficacy against Setaria viridis (SETVI) (Setaria viridis (SETVI) [14]): 90%; Pre-emergence efficacy against Alopecurus myosuroides (ALOMY) [17]: 90%; Pre-emergence efficacy against Alopecurus myosuroides (ALOMY) [27]: 100%
Cc1cc(C)c(-c2cc(C(F)F)on2)c(Oc2ncc(Cl)cn2)n1 [Example I-10] | 100 | 90 |  |  |  | 100 | 80 | 90 | 90 | 100 | 90 | 100 | 90 | 100 | 100 | 100 | 90 | 90 | 100 | 100 | Post-emergence efficacy against Poa annua (POAAN) (Poa annua (POAAN) [29]): 100%; Pre-emergence efficacy against Digitaria sanguinalis (DIGSA) [30]: 90%; Pre-emergence efficacy against Matricaria inodora (MATIN) [11]: 90%; Pre-emergence efficacy against Abutilon theophrasti (ABUTH) [12]: 90%; Pre-emergence efficacy against Lolium rigidum (LOLRI) (Lolium rigidum (LOLRI)): 90%
Cc1cc(C)c(-c2cc(C(F)F)on2)c(Oc2ncc(F)cn2)n1 [Example I-3] | 90 | 100 | 90 | 90 | 90 | 100 | 90 | 90 | 100 | 100 | 100 | 100 | 100 | 100 | 100 | 100 | 100 | 100 | 100 | 100 | Post-emergence efficacy against Poa annua (POAAN) (Poa annua (POAAN) [29]): 100%; Post-emergence efficacy against Abutilon theophrasti (ABUTH) [31]: 90%; Post-emergence efficacy against Bassia scoparia (KCHSC) (Bassia scoparia (KCHSC) [3]): 100%; Post-emergence efficacy against Polygonum convolvulus (POLCO) [32]: 100%; Post-emergence efficacy against Veronica persica (VERPE) (Veronica persica (VERPE) [33]): 80%; Pre-emergence efficacy against Digitaria sanguinalis (DIGSA) [30]: 100%; Pre-emergence efficacy against Matricaria inodora (MATIN) [11]: 100%; Pre-emergence efficacy against Veronica persica (VERPE) (Veronica persica (VERPE) [13]): 80%; Pre-emergence efficacy against Alopecurus myosuroides (ALOMY) [27]: 100%
Cc1cc(C)c(-c2cc(C(F)(F)F)no2)c(Oc2ncc(Cl)cn2)n1 [Example I-2] |  | 100 | 100 | 100 | 100 | 90 | 90 | 80 | 100 | 90 | 100 | 100 | 100 | 100 | 100 | 100 | 100 | 90 | 100 | 100 | Post-emergence efficacy against Alopecurus myosuroides (ALOMY) [5]: 90%; Pre-emergence efficacy against Abutilon theophrasti (ABUTH) [12]: 90%; Pre-emergence efficacy against Veronica persica (VERPE) (Veronica persica (VERPE) [13]): 90%; Pre-emergence efficacy against Alopecurus myosuroides (ALOMY) [17]: 80%; Pre-emergence efficacy against Lolium rigidum (LOLRI) (Lolium rigidum (LOLRI)): 90%; Pre-emergence efficacy against Alopecurus myosuroides (ALOMY) [27]: 100%
